Reference: patent publication US20140243351A1, “DRUG FOR THE TREATMENT OF ALLERGIC RHINITIS COMPRISING PGD2 ANTAGONIST AND HISTAMINE ANTAGONIST” (Shionogi & Co., Ltd., priority 2011, published 2014)
Like-named read-outs stand apart in the source and are kept apart here. Marks after values point to notes of the source that are not given here.

Columns and labels:
[1] = test system: guinea pig rhinitis model induced with PGD2 and histamine; test: Evaluation Test 3, guinea pig rhinitis model induced with PGD2 and histamine, nasal airway resistance; type: in vivo; details: oral, each agent at 10 mg/kg; about 10 minutes after PGD2 + histamine challenge
Source text: The pharmacological efficacy evaluation was made using 9 to 12 week-old male Harley guinea pigs in the following manner. Specifically, the guinea pigs were divided into the following groups: Group 1: Control Group (a group administered with a medium alone to a guinea pig); […] [table]

[2] = test system: patients with seasonal allergic rhinitis; test: Evaluation test on pharmacological efficacy on patients with seasonal allergic rhinitis (daytime nasal symptom scores)
Method: Each of the groups was asked to take each preparation in accordance with the following medication schedule. Thereafter, each of the patients was daily evaluated on daytime nasal symptoms, e.g. sneezing attacks, nasal discharge, nasal congestion, and nasal itching, in accordance with the following evaluation criteria. The results were analyzed. The lower the nasal symptom scores, more alleviated the nasal symptoms.
The medication was scheduled for a total of about 6 to 18 weeks, including a screening period of from 0 days to 12 weeks, a placebo introducing period of from 4 to 7 days, an ingestion period for each preparation of 4 weeks, and a post-observation period of 1 week.
Here, the evaluation criteria for sneezing, nasal discharge, and nasal congestion were conducted in 5-ranks from scores 0 to 4, and the evaluation criterion for nasal itching was conducted in 4-ranks of scores 0 to 3.
As to the nasal symptoms evaluated by each patient, average scores/day at time points 1, 2, 3, and 4 weeks after the administration, and the week just before the administration (for example, at a time point of 2 weeks after the administration refers to a one-week period from one week after the administration to the second week) were calculated, and changes since the start of the test were calculated and used in analysis. Here, in the between-group comparison distribution of the background factors, Fisher's exact test was used for nominal scale data, and Kruskal-Wallis test was used for continuous data or ordinal scale data. In both tests, the significance levels were set at 0.15 on both sides. In the analyses of nasal symptom items, the between-group comparison according to covariance analysis of an average change after two weeks from the administration, the between-group comparison according to covariance analysis of a change on a weekly basis, the between-group comparison of a change on a weekly basis using a linear model, and the between-group comparison according to chi-square test of improvement rate on a weekly basis were conducted. In all the comparisons, the significance level was set at 0.05 on both sides. In addition, as to the changes of nasal symptoms on a weekly basis, the between-group comparison according to covariance analysis for changes on a weekly basis using a linear model was conducted. Further, the between-group comparison according to chi-square test of improvement rate of each of the daytime nasal symptoms on a weekly basis was conducted. In the covariance analysis for a change on a weekly basis, in cases where data each week were not measured, the data were supplemented according to Last Observation Carried Forward (LOCF) method.

[3] = test system: guinea pig rhinitis model; test: Evaluation Test 1, guinea pig rhinitis model (OVA), nasal airway resistance, Formula (I) + fexofenadine hydrochloride; type: in vivo; details: single, 20 minutes after OVA challenge
Method: Guinea pig rhinitis models were generated by causing rhinitis-inflammation in 5 to 6 week-old male Harley guinea pigs in the following manner. Concretely, on day 0, the guinea pigs were intraperitoneally administered with cyclophosphamide diluted with physiological saline at 30 mg/kg. Two days later (on day 2), a mixed solution of aluminum hydroxide gel (10 mg), ovalbumin (OVA) (1 mg) and physiological saline was intraperitoneally administered to establish active sensitization. Thereafter, on day 9, a 1% OVA solution dissolved in physiological saline was intranasally challenged by 20 μL each to both the nostrils. Further, on day 16, a 2% OVA solution dissolved in physiological saline was intranasally challenged by 10 μL each to both the nostrils, thereby generating guinea pig rhinitis models that caused rhinitis-inflammation. Here, a control group that serves as a control was intranasally challenged by physiological saline in place of intranasally challenging by the OVA solution.
Specifically, prepared were the following: […]
Next, on day 23, a test substance listed in Table 7 was orally administered using a 0.5% methylcellulose (MC) solution as a medium, and one hour thereafter a 2% OVA solution dissolved in physiological saline was intranasally challenged by 10 μL each to both the nostrils (Group 1 was intranasally challenged by physiological saline in place of intranasal challenge by the OVA solution), and the nasal airway resistance was evaluated and analyzed. […] Here, nasal airway resistance (nRaw) is an average of specific airway resistance (sRaw) of 200 times or more breathing, and the analyzed values used in the comparisons of pharmacological efficacy are expressed as a percent change based on the nasal airway resistance measured before the intranasal challenge (100%) (IAR: immediately airway response). In addition, the between-group comparison was carried out according to one-sided t test, and the suppression percentage to Group 2 (Vehicle Group) was calculated by the following formula: […]

[4] = test system: seasonal allergic rhinitis patients; test: Clinical test (Ph 2, protocol 077) on seasonal allergic rhinitis, Non-Patent Publication 1; type: in vivo, human; details: beclomethasone versus loratadine, change per symptom from placebo
Source text: For example, Journal of Asthma, 46, 878-883, 2009 (Non-Patent Publication 1) describes clinical test results (Ph 2, protocol 077) on seasonal allergic rhinitis for a patient group administered with montelukast as an LT receptor antagonist, a patient group administered with loratadine as a histamine H1 receptor antagonist, and a patient group administered with beclomethasone as an intranasal steroid (see Table 3 in the publication). Here, the nasal symptoms, i.e. sneezing, nasal discharge, nasal congestion, and nasal itching, after two weeks since the start of the oral administration are scored to be evaluated.
Furthermore, Table 3 of Non-Patent Publication 1 describes clinical test results on seasonal allergic rhinitis for an intranasal steroid agent beclomethasone and a histamine H1 receptor antagonist loratadine. According to the publication, it can be seen that a change in scores of nasal symptoms, i.e. sneezing, nasal discharge, nasal congestion, and nasal itching, after two weeks since the start of the oral administration, per symptom from the placebo group is such that the change in a loratadine group is 0.31, i.e. a difference between 0.53 and 0.22, and that the change in a beclomethasone group is 0.48, i.e. a difference between 0.70 and 0.22. In other words, it can be seen that the intranasal steroid agent was 1.55 times effective of the histamine H1 receptor antagonist. […]

[5] = test system: seasonal allergic rhinitis patients; details: after two weeks, cited from earlier work; for change in nasal symptom scores per symptom from the placebo group: sneezing, nasal discharge, nasal congestion, nasal itching
[6] = test system: seasonal allergic rhinitis patients; details: after two weeks; cited from earlier work
[7] = test system: seasonal allergic rhinitis patients; details: after two weeks; montelukast 10 mg, loratadine 10 mg, combination 10 mg each; cited from earlier work
[8] = after two weeks from administration

Cl.Cl.O=C(O)COCCN1CCN(C(c2ccccc2)c2ccc(Cl)cc2)CC1 (racemic) [Cetirizine Hydrochloride, 2-(2-{4-[(RS)-(4-chlorophenyl)phenylmethyl]piperazin-1-yl}ethoxy)acetic acid dihydrochloride]
suppression percentage of nasal airway resistance increase [1]: 20% | Change in Nasal Congestion Scores, Difference with Placebo Group [2, 8]: −0.13 | Change in Nasal Discharge Scores, Difference with Placebo Group [2, 8]: −0.31** | Change in Nasal Itching Scores, Difference with Placebo Group [2, 8]: −0.28** | Change in Sneezing Scores, Difference with Placebo Group [2, 8]: −0.34*** | Change in Total of Three Nasal Symptom Scores, Difference with Placebo Group ([2]; after two weeks from administration, dihydrochloride): −0.73** | Change in Total of Three Nasal Symptom Scores, Difference with Placebo Group ([2]; after two weeks from administration, listed as cetirizine, dihydrochloride): 0.73 | change per symptom (total of three nasal symptom scores, from the placebo group) ([2]; after two weeks, worked out from Table 2): 0.24

CC(C)(C(=O)O)c1ccc(C(O)CCCN2CCC(C(O)(c3ccccc3)c3ccccc3)CC2)cc1.Cl (racemic) [fexofenadine hydrochloride, (±)-2-{4-[1-hydroxy-4-[4-(hydroxydiphenylmethyl)piperidino]butyl]phenyl}-2-methylpropanoic acid monohydrochloride]
suppression percentage of nasal airway resistance increase ([3]; Group 5, fexofenadine hydrochloride 20 mg/kg oral): 15%

CC(C)Oc1ccc(S(=O)(=O)N2CCN(c3ccc(-c4ncco4)c(OCC(=O)O)c3)CC2)cc1 [Formula (I), [2-(oxazol-2-yl)-5-(4-{4-[(propan-2-yl)oxy]phenylsulfonyl}piperazin-1-yl)phenoxy]acetic acid]
suppression percentage of nasal airway resistance increase [1]: 32% | Change in Nasal Congestion Scores, Difference with Cetirizine Hydrochloride Group [2, 8]: −0.03 | Change in Nasal Congestion Scores, Difference with Placebo Group [2, 8]: −0.16* | Change in Nasal Discharge Scores, Difference with Cetirizine Hydrochloride Group [2, 8]: 0.13 | Change in Nasal Discharge Scores, Difference with Placebo Group [2, 8]: −0.19** | Change in Nasal Itching Scores, Difference with Cetirizine Hydrochloride Group [2, 8]: 0.21** | Change in Nasal Itching Scores, Difference with Placebo Group [2, 8]: −0.06 | Change in Sneezing Scores, Difference with Cetirizine Hydrochloride Group [2, 8]: 0.23** | Change in Sneezing Scores, Difference with Placebo Group [2, 8]: −0.11 | Change in Total of Three Nasal Symptom Scores, Difference with Cetirizine Hydrochloride Group [2, 8]: 0.28 | Change in Total of Three Nasal Symptom Scores, Difference with Placebo Group [2, 8]: −0.45* | suppression percentage of nasal airway resistance increase ([3]; Group 3, Formula (I) 1 mg/kg oral): 21% | suppression percentage of nasal airway resistance increase ([3]; Group 4, Formula (I) 10 mg/kg oral): 47%

C[C@H]1C[C@H]2[C@@H]3CCC4=CC(=O)C=C[C@]4(C)[C@@]3(Cl)[C@@H](O)C[C@]2(C)[C@@]1(O)C(=O)CO [beclomethasone]
effect of intranasal steroid agent relative to histamine H1 receptor antagonist [4]: 1.55 times | change in nasal symptom scores per symptom since the start of the administration [5]: 0.70 | change in nasal symptom scores per symptom from the placebo group [5]: 0.48

CCOC(=O)N1CCC(=C2c3ccc(Cl)cc3CCc3cccnc32)CC1 [loratadine, ethyl 4-(8-chloro-5,6-dihydro-11H-benzo[5,6]cyclohepta[1,2-b]pyridin-11-ylidene)-1-piperidinecarboxylate]
change in nasal symptom scores per symptom since the start of the administration [5]: 0.53 | change in nasal symptom scores per symptom from the placebo group [5]: 0.31 | change per symptom of the nasal symptom scores since the start of the administration [6]: 0.40 | change per symptom of the nasal symptom scores, based on the placebo group [6]: 0.09 | change per symptom of the nasal symptom scores since the start of the administration [7]: 0.34 | change per symptom of the nasal symptom scores, based on the placebo group [7]: 0.09
